Assay results reported in patent US11253525B2, “Inhibitors of indoleamine 2,3-dioxygenase and methods of their use” (BRISTOL-MYERS SQUIBB COMPANY, priority 2018, dated 2022).
Read-outs that look alike come from different tables or passages of the source.

Molecular target: T1, indoleamine 2,3-dioxygenase (IDO) (Homo sapiens, UniProt P14902)
T1 construct: replaced with media containing IFNγ (#285-IF/CF, R&D Systems) at a final concentration of 25 ng/mL; endogenous in cells; host or cells: HeLa (ATCC CCL-2), IFN-gamma stimulated
T1 sequence (P14902 whole entry): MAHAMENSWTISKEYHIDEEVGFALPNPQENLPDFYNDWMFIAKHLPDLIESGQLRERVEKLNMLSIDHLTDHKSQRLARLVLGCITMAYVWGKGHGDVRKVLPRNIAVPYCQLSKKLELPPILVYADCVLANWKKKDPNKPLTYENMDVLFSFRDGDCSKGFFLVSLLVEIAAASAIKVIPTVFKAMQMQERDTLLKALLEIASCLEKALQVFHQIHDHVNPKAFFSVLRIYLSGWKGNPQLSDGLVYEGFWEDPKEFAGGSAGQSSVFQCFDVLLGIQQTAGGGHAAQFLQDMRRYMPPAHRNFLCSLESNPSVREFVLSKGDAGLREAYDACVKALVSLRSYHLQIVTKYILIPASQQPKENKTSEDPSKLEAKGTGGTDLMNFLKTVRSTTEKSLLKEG
Assay: HeLa cell-based indoleamine 2,3-dioxygenase (IDO) assay, kynurenine production
Conditions: HeLa cells, IFNγ 25 ng/mL, 48 hour incubation
Experimental: Assessment of Inhibitor Activity in HeLa Cell-Based Indoleamine 23-Dioxygenase (IDO) Assay
Cells were maintained in a humidified incubator at 37° C. in 5% CO2.
IDO activity was assessed as a function of kynurenine production as follows: HeLa cells were seeded in a 96-well culture plate at a density of 5,000 cells/well and allowed to equilibrate overnight. […] A serial dilution of each test compound was added to the cells in a total volume of 200 μL of culture medium. After a further 48 hour incubation, 170 μL of supernatant was transferred from each well to a fresh 96-well plate. 12.1 μL of 6.1N trichloroacetic acid (#T0699, Sigma-Aldrich) was added to each well and mixed, followed by incubation at 65° C. for 20 minutes to hydrolyze N-formylkynurenine, the product of indoleamine 2,3-dioxygenase, to kynurenine. The reaction mixture was then centrifuged for 10 mins at 500×g to sediment the precipitate. 100 μL of the supernatant was transferred from each well to a fresh 96-well plate. […] Kynurenine concentrations were determined by measuring absorbance at 480 nm and calibrating against an L-kynurenine (#K8625, Sigma-Aldrich) standard curve using a SPECTRAMAX® M2e microplate reader (Molecular Devices). The percentage activity at each inhibitor concentration was determined and IC50 values assessed using nonlinear regression.

[1] = read-out: IDO Hela IC50 class (A < 50, B < 250, C < 2000)

IC50 (read-out: IDO Hela IC50) [nM] | IC50 [1] [nM] | Structure (SMILES)
610 |  | CCO[C@H](c1ccc([C@H](CC)CC(=O)O)cc1Nc1cnc(COC)nc1)C(F)(F)F (single isomer, unassigned) [Example 16]
580 |  | CCO[C@H](c1ccc([C@@H](CC)CC(=O)O)cc1NC(=O)Nc1ccc(C)cc1)C(F)(F)F (single isomer, unassigned) [Example 19]
10 |  | CCO[C@H](c1ccc([C@@H](CC)CC(=O)O)cc1NC(=O)Nc1ccc(Cl)cc1F)C(F)(F)F (single isomer, unassigned) [Example 20]
10 |  | CCO[C@H](c1ccc([C@@H](CC)CC(=O)O)cc1Nc1cnc(OC)nc1)C(F)(F)F (single isomer, unassigned) [Example 22]
10 |  | CCO[C@H](c1ccc([C@@H](CC)CC(=O)O)cc1Nc1cnc(OC)cn1)C(F)(F)F (single isomer, unassigned) [Example 25]
 | < 50 | CCO[C@H](c1ccc([C@@H](CC)CC(=O)O)cc1Nc1ccc(C#N)cc1)C(F)(F)F (single isomer, unassigned) [Example 26]
90 |  | CCO[C@H](c1ccc([C@@H](CC)CC(=O)O)cc1Nc1cnc(COC)nc1)C(F)(F)F (single isomer, unassigned) [Example 27]
 | < 50 | CCO[C@H](c1ccc([C@@H](CC)CC(=O)O)cc1Nc1cnc(C)nc1)C(F)(F)F (single isomer, unassigned) [Example 28]
20 |  | CCO[C@H](c1ccc([C@@H](CC)CC(=O)O)cc1Nc1cnc(CC)nc1)C(F)(F)F (single isomer, unassigned) [Example 29]
20 |  | CCO[C@@H](c1ccc([C@H](CC)CC(=O)O)cc1NC(=O)Nc1ccc(C)cc1)C(F)(F)F (single isomer, unassigned) [Example 31]
 | < 50 | CCO[C@@H](c1ccc([C@H](CC)CC(=O)O)cc1NC(=O)Nc1ccc(Cl)cc1F)C(F)(F)F (single isomer, unassigned) [Example 32]
30 |  | CCO[C@@H](c1ccc([C@H](CC)CC(=O)O)cc1Nc1cnc(OC)nc1)C(F)(F)F (single isomer, unassigned) [Example 33]
 | < 50 | CCO[C@@H](c1ccc([C@H](CC)CC(=O)O)cc1Nc1ccc(C#N)cc1)C(F)(F)F (single isomer, unassigned) [Example 37]
610 |  | CCO[C@@H](c1ccc([C@H](CC)CC(=O)O)cc1Nc1cnc(COC)nc1)C(F)(F)F (single isomer, unassigned) [Example 38]
100 |  | CCO[C@@H](c1ccc([C@H](CC)CC(=O)O)cc1Nc1cnc(C)nc1)C(F)(F)F (single isomer, unassigned) [Example 39]
20 |  | CCO[C@@H](c1ccc([C@H](CC)CC(=O)O)cc1Nc1cnc(CC)nc1)C(F)(F)F (single isomer, unassigned) [Example 40]
20 |  | CCO[C@@H](c1ccc([C@@H](CC)CC(=O)O)cc1NC(=O)Nc1ccc(C)cc1)C(F)(F)F (single isomer, unassigned) [Example 41]
10 |  | CCO[C@@H](c1ccc([C@@H](CC)CC(=O)O)cc1Nc1cnc(OC)nc1)C(F)(F)F (single isomer, unassigned) [Example 43]
30 |  | CCOc1ncc(Nc2cc([C@@H](CC)CC(=O)O)ccc2[C@H](OCC)C(F)(F)F)cn1 (single isomer, unassigned) [Example 45]
440 |  | CCO[C@@H](c1ccc([C@@H](CC)CC(=O)O)cc1Nc1cnc(COC)nc1)C(F)(F)F (single isomer, unassigned) [Example 49]
20 | < 50 | CCO[C@@H](c1ccc([C@@H](CC)CC(=O)O)cc1Nc1ccc(F)cc1)C(F)(F)F (single isomer, unassigned) [Example 51]
230 |  | CCOC(c1ccc(C(COC)CC(=O)O)cc1NC(=O)Nc1ccc(C)cc1)C(F)(F)F (single isomer, unassigned) [Example 52]
40 |  | CCO[C@H](c1ccc([C@H](COC)CC(=O)O)cc1NC(=O)Nc1ccc(Cl)cc1F)C(F)(F)F (single isomer, unassigned) [Example 53]
10 |  | CCO[C@H](c1ccc([C@H](COC)CC(=O)O)cc1Nc1ccc(C#N)c(F)c1)C(F)(F)F (single isomer, unassigned) [Example 55]
 | 250 to 2000 | CCO[C@H](c1ccc([C@H](COC)CC(=O)O)cc1Nc1ncc(F)cn1)C(F)(F)F (single isomer, unassigned) [Example 56]
20 |  | CCO[C@H](c1ccc([C@H](COC)CC(=O)O)cc1Nc1ccc(Cl)cc1)C(F)(F)F (single isomer, unassigned) [Example 58]

IC50 (read-out: IDO Hela IC50) [nM] | IC50 [1] [nM] | Structure (SMILES)
 | 250 to 2000 | CCO[C@H](c1ccc([C@H](COC)CC(=O)O)cc1Nc1cnc(C)nc1)C(F)(F)F (single isomer, unassigned) [Example 59]
910 |  | CCO[C@H](c1ccc([C@@H](COC)CC(=O)O)cc1NC(=O)Nc1ccc(C)cc1)C(F)(F)F (single isomer, unassigned) [Example 60]
190 |  | CCO[C@H](c1ccc([C@@H](COC)CC(=O)O)cc1NC(=O)Nc1ccc(Cl)cc1F)C(F)(F)F (single isomer, unassigned) [Example 61]
40 |  | CCO[C@H](c1ccc([C@@H](COC)CC(=O)O)cc1Nc1cnc(OC)nc1)C(F)(F)F (single isomer, unassigned) [Example 62]
10 |  | CCO[C@H](c1ccc([C@@H](COC)CC(=O)O)cc1Nc1ccc(C#N)cc1)C(F)(F)F (single isomer, unassigned) [Example 65]
 | < 50 | CCO[C@H](c1ccc([C@@H](COC)CC(=O)O)cc1Nc1ccc(Cl)cc1)C(F)(F)F (single isomer, unassigned) [Example 66]
410 |  | CCO[C@H](c1ccc([C@@H](COC)CC(=O)O)cc1Nc1cnc(C)nc1)C(F)(F)F (single isomer, unassigned) [Example 67]
240 |  | CCO[C@@H](c1ccc([C@H](COC)CC(=O)O)cc1NC(=O)Nc1ccc(Cl)cc1F)C(F)(F)F (single isomer, unassigned) [Example 68]
620 |  | CCO[C@@H](c1ccc([C@H](COC)CC(=O)O)cc1Nc1cnc(OC)nc1)C(F)(F)F (single isomer, unassigned) [Example 69]
 | 250 to 2000 | CCO[C@@H](c1ccc([C@H](COC)CC(=O)O)cc1Nc1ncc(F)cn1)C(F)(F)F (single isomer, unassigned) [Example 71]
10 |  | CCO[C@@H](c1ccc([C@H](COC)CC(=O)O)cc1Nc1ccc(Cl)cc1)C(F)(F)F (single isomer, unassigned) [Example 72]
 | 250 to 2000 | CCO[C@@H](c1ccc([C@H](COC)CC(=O)O)cc1Nc1cnc(C)nc1)C(F)(F)F (single isomer, unassigned) [Example 74]
40 |  | CCO[C@@H](c1ccc([C@@H](COC)CC(=O)O)cc1NC(=O)Nc1ccc(Cl)cc1F)C(F)(F)F (single isomer, unassigned) [Example 75]
700 |  | CCO[C@@H](c1ccc([C@@H](COC)CC(=O)O)cc1Nc1cnc(OC)nc1)C(F)(F)F (single isomer, unassigned) [Example 76]
30 |  | CCO[C@@H](c1ccc([C@@H](COC)CC(=O)O)cc1Nc1ccc(C#N)c(F)c1)C(F)(F)F (single isomer, unassigned) [Example 77]
10 |  | CCO[C@@H](c1ccc([C@@H](COC)CC(=O)O)cc1Nc1ccc(Cl)cc1)C(F)(F)F (single isomer, unassigned) [Example 79]
 | < 50 | CCO[C@@H](c1ccc([C@@H](COC)CC(=O)O)cc1Nc1ccc(C#N)cc1)C(F)(F)F (single isomer, unassigned) [Example 80]
 | < 50 | CC[C@@H](CC(=O)O)c1ccc([C@@H](OC)C(F)(F)F)c(Nc2ccc(Cl)cc2)c1 (single isomer, unassigned) [Example 83-1]
 | < 50 | CC[C@H](CC(=O)O)c1ccc([C@@H](OC)C(F)(F)F)c(Nc2ccc(Cl)cc2)c1 (single isomer, unassigned) [Example 83-2]
 | < 50 | CC[C@H](CC(=O)O)c1ccc([C@H](OC)C(F)(F)F)c(Nc2ccc(Cl)cc2)c1 (single isomer, unassigned) [Example 84-1]
 | < 50 | CC[C@@H](CC(=O)O)c1ccc([C@H](OC)C(F)(F)F)c(Nc2ccc(Cl)cc2)c1 (single isomer, unassigned) [Example 84-2]
 | < 50 | CC[C@@H](CC(=O)O)c1ccc([C@@H](OC)C(F)(F)F)c(Nc2ccc(C#N)cc2)c1 (single isomer, unassigned) [Example 85]
450 |  | CC[C@@H](CC(=O)O)c1ccc([C@@H](OC)C(F)(F)F)c(Nc2cnc(C)nc2)c1 (single isomer, unassigned) [Example 86]
130 |  | CCOc1ncc(Nc2cc([C@@H](CC)CC(=O)O)ccc2[C@@H](OC)C(F)(F)F)cn1 (single isomer, unassigned) [Example 87]
10 |  | CC[C@@H](CC(=O)O)c1ccc([C@@H](OC)C(F)(F)F)c(Nc2cnc(C(F)(F)F)nc2)c1 (single isomer, unassigned) [Example 88]
